Data published in ChEMBL document CHEMBL4825750, “Evaluation of Elaiophylin extracted from Streptomyces hygroscopicus as a potential inhibitor of the NorA efflux protein in Staphylococcus aureus: An in vitro and in silico approach” (2021).
Values after ≈ are worked out from the molar mass of the structure shown. Active and inactive are the calls of the source. The calls are words filed in the database; no cut-off is given here.

Experiments:
Staphylococcus aureus [1] = experiment: Antibacterial activity against wild-type Staphylococcus aureus SA-1199 incubated for 24 hrs by broth microdilution method; assay type: functional
Staphylococcus aureus [2] = experiment: Decrease in NorA gene expression in Staphylococcus aureus SA-1199B by RT-qPCR; assay type: functional
Staphylococcus aureus [3] = experiment: Decrease in NorA gene expression in Staphylococcus aureus SA-1199B in combination with norfloxacin by RT-qPCR; assay type: functional
[4] = target: T1, Quinolone resistance protein NorA (Staphylococcus aureus) (UniProt P0A0J7); experiment: Inhibition of NorA in Staphylococcus aureus SA-1199 assessed as potentiation of ethidium bromide-mediated antibacterial activity by measuring ethidium bromide MIC incubated for 24 hrs by resazurin assay
T1 sequence (whole entry): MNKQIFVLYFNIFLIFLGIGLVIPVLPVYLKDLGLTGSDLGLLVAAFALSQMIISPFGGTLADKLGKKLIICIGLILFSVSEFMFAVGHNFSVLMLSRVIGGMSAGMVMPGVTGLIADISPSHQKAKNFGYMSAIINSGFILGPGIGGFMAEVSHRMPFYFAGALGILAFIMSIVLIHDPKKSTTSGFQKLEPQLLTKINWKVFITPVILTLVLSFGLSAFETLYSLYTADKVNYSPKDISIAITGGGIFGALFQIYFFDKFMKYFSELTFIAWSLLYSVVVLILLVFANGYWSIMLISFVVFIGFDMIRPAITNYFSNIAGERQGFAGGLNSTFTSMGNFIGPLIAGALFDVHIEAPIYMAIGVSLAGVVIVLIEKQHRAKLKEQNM

Staphylococcus aureus [5] = experiment: Antibacterial activity against Staphylococcus aureus SA-1199B overexpressing NorA incubated for 24 hrs by broth microdilution method; assay type: functional
[6] = target: T1, Quinolone resistance protein NorA (Staphylococcus aureus); experiment: Inhibition of NorA in Staphylococcus aureus SA-1199B assessed as potentiation of norfloxacin-mediated antibacterial activity by measuring norfloxacin MIC incubated for 24 hrs by resazurin assay
[7] = target: T1, Quinolone resistance protein NorA (Staphylococcus aureus); experiment: Inhibition of NorA in Staphylococcus aureus SA-1199B assessed as potentiation of ethidium bromide-mediated antibacterial activity by measuring ethidium bromide MIC incubated for 24 hrs by resazurin assay
[8] = target: T1, Quinolone resistance protein NorA (Staphylococcus aureus); experiment: Inhibition of NorA in Staphylococcus aureus SA-1199 assessed as potentiation of norfloxacin-mediated antibacterial activity by measuring norfloxacin MIC incubated for 24 hrs by resazurin assay

In the case of CC[C@@H]1[C@@H](C)O[C@@](O)([C@@H](C)[C@H](O)[C@H](C)[C@H]2OC(=O)/C=C/C=C/[C@H](C)[C@@H]([C@@H](C)[C@@H](O)[C@H](C)[C@@]3(O)C[C@@H](O[C@H]4C[C@H](O)[C@H](O)[C@H](C)O4)[C@H](CC)[C@@H](C)O3)OC(=O)/C=C/C=C/[C@@H]2C)C[C@H]1O[C@H]1C[C@H](O)[C@H](O)[C@H](C)O1, the MIC (Staphylococcus aureus [1]) is reported as 0.5 µg/mL (≈ 0.488 µM), the Activity (Staphylococcus aureus [2]) is reported as “Active” and the Activity (Staphylococcus aureus [3]) is reported as “Active”. It also gave an MIC [4] of 1 µg/mL, an MIC (Staphylococcus aureus [5]) of 0.5 µg/mL (≈ 0.488 µM) and an MIC [6] of 1 µg/mL. It also gave an MIC [7] of 1 µg/mL and an MIC [8] of 1 µg/mL.
CCn1cc(C(=O)O)c(=O)c2cc(F)c(N3CCNCC3)cc21 [NORFLOXACIN] gave an MIC (Staphylococcus aureus [1]) of 64 µg/mL (≈ 200 µM) and an MIC (Staphylococcus aureus [5]) of 256 µg/mL (≈ 802 µM).
For N#CC(C#N)=NNc1cccc(Cl)c1, the MIC [4] was 4 µg/mL, the MIC [6] was 8 µg/mL and the MIC [7] was 8 µg/mL. It also gave an MIC [8] of 8 µg/mL.
